Consider 3 compounds from patent US8945929B2, “Marker for determination of sensitivity to anti-cancer agent” (Keio University, priority 2008, dated 2015).

Structures can show the parent of a compound that is named as a salt.

Data set [1] concerns cultured human colorectal cancer cells, HCT-116. In words: Tumor size in nude mice with subcutaneously transplanted HCT-116 cells. As to conditions: 7 days after the administration. Type of data set: in vivo, nude mice (BALB/cAJcl-nu/nu). As for the experimental part: (§1) Six-week-old, male nude mice (BALB/cAJcl-nu/nu) purchased from CLEA Japan, Inc. were used and allowed to ingest a general feed and drink water freely in a thermostatic chamber. A protocol following the animal experiment guideline in School of Medicine, Keio University was applied and then approved. Then, this examination was carried out humanely.
(§2) CAMPTO™ as a preparation of CPT-11 and a solvent for dissolving Campto (hereinafter, referred to as “solvent”) were obtained from Yakult Honsha, Co., Ltd.
(§3) After the transplantation, a tumor size was measured by using the following formula: (longer tumor diameter)×(shorter tumor diameter)^2/2. When the tumor size reached 300 to 400 mm^3, the mice were randomly assigned to a CPT-11 administration group and a solvent administration group (a CPT-11 non-administration group). The day when the mice were assigned to two groups was defined as day 0. CAMPTO™ as a preparation of CPT-11 in an amount of 4.5 mL/kg (90 mg/kg as CPT-11 amount) and the solvent for dissolving CAMPTO™ (D-sorbitol, lactic acid, pH adjuster) were administered slowly to the CPT-11 administration group and a CPT-11 non-administration group, respectively, from the tail vein. The tumor size was measured on day 0, and 12 hours, 24 hours, 72 hours, and 7 days after the administration. The blood was collected after the dissection. After the centrifugation of the collected blood at 10,000 rpm for 10 minutes, a serum fraction was frozen with liquid nitrogen and stored at −80° C. until the serum fraction was used in preparation of a sample for metabolome analysis. As a control group, a cancer cell-non-transplanted group was produced and the same treatment was carried out.
After the transplantation, a tumor size was measured by using the following formula: (longer tumor diameter)×(shorter tumor diameter)^2/2. When the tumor size reached 300 to 400 mm^3, the mice were randomly assigned to a CPT-11 administration group and a solvent administration group. The tumor size was measured on day 0, and 12 hours, 24 hours, 72 hours, and 7 days after the administration. […]

Data set [2] concerns cultured human colorectal cancer cells, HT-29. In words: Tumor size in nude mice with subcutaneously transplanted HT-29 cells. Type of data set: in vivo, nude mice (BALB/cAJcl-nu/nu). As to conditions: conclusion from tumor size, 7 days after the administration. The method, then:
as §1, §2
After the transplantation, a tumor size was measured by using the following formula: (longer tumor diameter)×(shorter tumor diameter)^2/2. When the tumor size reached 300 to 400 mm^3, the mice were randomly assigned to a CPT-11 administration group and a solvent administration group (a CPT-11 non-administration group). The day when the mice were assigned to two groups was defined as day 0. […] The tumor size was measured on day 0, and 12 hours, 24 hours, 72 hours, and 7 days after the administration. […]
After the transplantation, a tumor size was measured by using the following formula: (longer tumor diameter)×(shorter tumor diameter)^2/2. […] The tumor size was measured on day 0, and 12 hours, 24 hours, 72 hours, and 7 days after the administration. […]

Data set [3] deals with cultured human colorectal cancer cells, HCT-116. In words: Serum metabolome (CE-TOFMS) of HCT-116 cancer-bearing mice after CPT-11. Type of data set: in vivo, nude mice (BALB/cAJcl-nu/nu). The following applies: HCT-116 transplanted, 90 mg/kg as CPT-11. The method, then: as §3, with “After the centrifugation of the collected blood at 10,000 rpm for 10 minutes, a serum fraction was frozen with liquid nitrogen and stored at −80° C. until the serum fraction was used in preparation of a sample for metabolome analysis. As a control group, a cancer cell-non-transplanted group was produced and the same treatment was carried out.” left out
(§4) The comprehensive measurement of the metabolites in a serum was carried out by using a capillary electrophoresis time-of-flight mass spectrometry (CE-TOFMS) system manufactured by Agilent Technologies, Inc. In this examination, a voltage was applied such that an output of the capillary was a cathode, and cationic metabolites were comprehensively measured. […]

Data set [4] deals with cultured human colorectal cancer cells, HT-29. In words: Serum metabolome (CE-TOFMS) of HT-29 cancer-bearing mice after CPT-11. Type of data set: in vivo, nude mice (BALB/cAJcl-nu/nu). The following applies: HT-29 transplanted, 90 mg/kg as CPT-11. The method, then:
as §3, with “After the centrifugation of the collected blood at 10,000 rpm for 10 minutes, a serum fraction was frozen with liquid nitrogen and stored at −80° C. until the serum fraction was used in preparation of a sample for metabolome analysis. As a control group, a cancer cell-non-transplanted group was produced and the same treatment was carried out.” left out
as §4

The conditions of data set [5]: background statement; cited from earlier work.
Data set [6] concerns cultured human colorectal cancer cells, HCT-116. As to conditions: HCT-116, as obtained from Yakult Honsha; cited from earlier work.
Data set [7] relates to cultured human colorectal cancer cells, HT-29. As to conditions: HT-29, as obtained from Yakult Honsha; cited from earlier work.
[8] abbreviates: 12 hours after the administration.
Where [9] appears, read: 24 hours after the administration.

In the case of `CCc1c2c(nc3ccc(OC(=O)N4CCC(N5CCCCC5)CC4)cc13)-c1cc3c(c(=O)n1C2)COC(=O)[C@]3(O)CC` [CPT-11, Irinotecan hydrochloride], the “tumor size, CPT-11 group with HCT-116 vs CPT-11 group with HT-29” value in data set [1] (90 mg/kg as CPT-11, tail vein) is “significant difference (p=0.04979)”. In addition, the “tumor size, CPT-11 administration group vs solvent administration group” value in data set [1] (HCT-116 transplanted, 90 mg/kg as CPT-11, tail vein) is recorded as “significant difference (p=0.01319)”. Besides, in data set [1] (conclusion from tumor size), the “sensitivity of HCT-116 to CPT-11 compared to HT-29” value was “high sensitivity”. Moreover, the “sensitivity of HT-29 to CPT-11 compared to HCT-116” value in data set [2] is reported as “low sensitivity”. Besides, the “serum expression level of peak at m/z 104.070 (N,N-dimethyl glycine), CPT-11 administration group” value in data set [3] (setting [8]) is “decreased to the same level as in the control group”. Also, the “serum expression level of peak at m/z 166.086 (L-phenylalanine), CPT-11 administration group” value in data set [3] (setting [9]) was “decreased to the same level as in the control group”. For the same compound, the “serum expression level of peak at m/z 104.070 (N,N-dimethyl glycine), CPT-11 group vs solvent group” value in data set [4] (setting [8]) is “the same level”. For the same compound, the “serum expression level of peak at m/z 166.086 (L-phenylalanine), CPT-11 group vs solvent group” value in data set [4] (setting [9]) is listed as “the same level”.

For the compound `CCc1c2c(nc3ccc(O[C@@H]4O[C@H](C(=O)O)[C@@H](O)[C@H](O)[C@H]4O)cc13)-c1cc3c(c(=O)n1C2)COC(=O)[C@]3(O)CC` [SN-38G], the cytotoxicity result in data set [5] is recorded as “no cytotoxicity”.

For the compound `CCc1c2c(nc3ccc(O)cc13)-c1cc3c(c(=O)n1C2)COC(=O)[C@]3(O)CC` [SN-38, 7-ethyl-10-hydroxycamptothecin], the results for the “sensitivity of cells to SN-38” value in data set [6] and in data set [7] were “high sensitivity” and “low sensitivity”, respectively.
